Experimental data: patent US8946234B2, “Halogen-substituted compounds” (Bayer CropScience AG, priority 2008, dated 2015)
Where two headings read alike, the source gives them in different places.

Test: physchem
Type: physicochemical
Conditions: for chromatographic logP: read-out: logP
Description: ^a) Note regarding the determination of the log P values and mass detection: The log P values given were determined in accordance with EEC Directive 79/831 Annex V.A8 by HPLC (High Performance Liquid Chromatography) on a phase inversion column (C18). Agilent 1100 LC system; 50*4.6 Zorbax Eclipse Plus C18 1.8 micron; eluent A: acetonitrile (0.1% formic acid); eluent B: water (0.09% formic acid); linear gradient from 10% acetonitrile to 95% acetonitrile in 4.25 min, then 95% acetonitrile for a further 1.25 min; oven temperature 55° C.; flow: 2.0 ml/min. The mass detection is carried out via an Agilend MSD system.

[1] = HPLC phase inversion (reversed-phase) C18 column, HPLC method a), eluent acetonitrile/water with formic acid
[2] = HPLC phase inversion (reversed-phase) C18 column, HPLC on C18 phase inversion column, method a)

| Compound | logP | further results |
| --- | --- | --- |
| Cn1nc(C(F)(F)C(F)(F)F)c(C(F)(F)F)c1C(=O)Nc1cc(Br)cc(C(=O)NC2CC2)c1 [Ik-221] | 3.74^a) | – |
| CCOC(=O)c1cc(NC(=O)c2c(C(F)(F)F)c(C(F)(F)C(F)(F)F)nn2C)ccc1Cl [Ik-103] | 4.42^a) | – |
| Cn1nc(C(F)(F)C(F)(F)F)c(C(F)(F)F)c1C(=O)Nc1ccc(Cl)c(C(=O)NS(C)(=O)=O)c1 [Ik-24] | 3.13^a) | – |
| Cn1nc(C(F)(F)F)c(Cl)c1C(=O)Nc1ccc(Cl)c(C(=O)NCc2ccccc2)c1 [Ik-20] | 3.46^a) | – |
| Cn1nc(C(F)(F)F)c(Cl)c1C(=O)Nc1ccc(Cl)c(C(=O)NCC=CCl)c1 [Ik-19] | 3.22^a) | – |
| O=C(NCC(F)(F)F)c1cc(NC(=O)c2[nH]nc(C(F)(F)C(F)(F)F)c2C(F)(F)F)ccc1Cl [Ik-124, N-{4-Chloro-3-[(2,2,2-trifluoroethyl)carbamoyl]phenyl}-3-(pentafluoroethyl)-4-(trifluoromethyl)-1H-pyrazole-5-carboxamide] | – | chromatographic logP [1]: 3.26; chromatographic logP [2]: 3.26 |
| Cn1nc(OCC(F)(F)F)c(Br)c1C(=O)Nc1ccc(Cl)c(C(=O)NC2CC2)c1 [Ik-256] | 2.87^a) | – |
| CSc1c(F)cc(NC(=O)c2c(C(F)(F)F)c(C(F)(F)C(F)(F)F)nn2C)cc1C(=O)NCC(F)(F)F [Ik-193] | 3.90^a) | – |
| Cn1ccc(C(F)(F)OC(F)(F)OC(F)(F)F)n1 [3-{[Difluoro(trifluoromethoxy)methoxy](difluoro)methyl}-1-methyl-1H-pyrazole] | – | chromatographic logP [1]: 3.79 |
| Cn1nc(C(F)(F)C(F)(F)F)c(C(F)(F)F)c1C(=O)Nc1cc2c(cc1F)COC2=O [Ik-105] | 3.27^a) | – |
| Cn1nc(C(F)(F)C(F)(F)F)c(C(F)(F)F)c1C(=O)Nc1cc(F)c(I)c(C(=O)NCC=CCl)c1 [Ik-224] | 3.99^a) | – |
| CSc1c(Cl)cc(NC(=O)c2c(C(F)(F)F)c(C(F)(F)C(F)(F)F)nn2C)cc1C(=O)NCC(F)(F)F [Ik-203] | 4.15^a) | – |
| C=CCNC(=O)c1cc(NC(=O)c2c(C(F)(F)F)c(C(F)(F)C(F)(F)F)nn2C)ccc1Cl [Ik-93] | 3.44^a) | – |
| O=C(NCC=CCl)c1cc(NC(=O)c2ncc(C(F)(F)F)cc2Cl)ccc1Cl [Ii-4] | 2.93^a) | – |
| CC(C)NC(=O)c1cc(NC(=O)c2nccc(C(F)(F)F)c2Cl)ccc1Cl [Ie-2] | 2.72^a) | – |
| CC(C)n1nc(C(F)(F)C(F)(F)F)c(C(F)(F)F)c1C(=O)Nc1ccc(Cl)c(C(=O)NC2CC2)c1 [Ik-218] | 4.02^a) | – |
| O=C(NCC=CCl)c1cc(NC(=O)c2ccc(C(F)(F)F)nc2Cl)ccc1Cl [Ir-10] | 2.86^a) | – |
| Cn1nc(C(F)(F)C(F)(F)F)c(C(F)(F)F)c1C(=O)Nc1cc(Br)c(I)c(C(=O)NCc2ccccc2)c1 [Ik-211] | 4.49^a) | – |
| Cn1nc(C(F)(F)C(F)(F)F)c(C(F)(F)F)c1C(=O)Nc1ccc(Cl)c(C(=O)NCC=CCl)c1 [Ik-83] | 3.72^a) | – |
| Cn1nc(OCC(F)(F)F)c(F)c1C(=O)Nc1ccc(Cl)c(C(=O)NC2CC2)c1 [Ik-260] | 2.75^a) | – |
| Cn1nc(C(F)(F)C(F)(F)F)c(C(F)(F)F)c1C(=O)Nc1cc(F)c(Br)c(C(=O)NCC(F)(F)F)c1 [Ik-228] | 3.88^a) | – |
| CC(NC(=O)c1cc(NC(=O)c2c(I)c(C(F)(F)C(F)(F)C(F)(F)C(F)(F)F)nn2C)ccc1Cl)C1CC1 (stereo not shown) [Ik-267] | 4.38^a) | – |

| Compound | logP | further results |
| --- | --- | --- |
| Cn1nc(C(F)(F)C(F)(F)F)c(C(F)(F)F)c1C(=O)Nc1cc(F)c(F)c(C(=O)NC2CC2)c1 [Ik-140] | 3.60^a) | – |
| O=C(O)c1cnc(C(F)(F)C(F)(F)F)nc1C(F)F [4-(Difluoromethyl)-2-(pentafluoroethyl)pyrimidine-5-carboxylic acid] | – | chromatographic logP [1]: 1.8 |
| Cc1nc(C(F)(F)C(F)(F)F)ncc1C(=O)Nc1ccc(Cl)c(C(=O)NCc2ccccc2)c1 [Ib-26] | 3.43^a) | – |
| Cn1nc(C(F)(F)F)c(C(F)(F)F)c1C(=O)Nc1ccc(Cl)c(C(=O)NCC=CCl)c1 [Ik-196] | 3.28^a) | – |
| Cn1nc(-c2cc(C(F)(F)F)cc(C(F)(F)F)c2)c(C(F)(F)F)c1C(=O)Nc1ccc(Cl)c(C(=O)NC2CC2)c1 [Ik-259] | 4.19^a) | – |
| CC(C)NC(=O)c1cc(NC(=O)c2c(Br)c(C(F)(F)C(F)(F)F)nn2C)ccc1Cl [Ik-27] | 3.49^a) | – |
| CN(C(=O)c1c(C(F)(F)F)c(C(F)(F)C(F)(F)F)nn1C)c1ccc(Cl)c(C(=O)NC2CC2)c1 [Ik-132] | 3.30^a) | – |
| Cc1nc(C(F)(F)C(F)(F)F)ncc1C(=O)Nc1ccc(Cl)c(C(=O)NCC(F)(F)F)c1 [Ib-24] | 3.16^a) | – |
| Cn1nc(C(F)(F)C(F)(F)F)c(C(F)(F)F)c1C(=O)Nc1ccc(Cl)c(C(=O)NCC(F)(F)F)c1 [Ik-87] | 3.67^a) | – |
| CC(NC(=O)c1cc(NC(=O)c2c(Br)c(C(F)(F)F)nn2C)ccc1Cl)C(F)(F)F (stereo not shown) [Ik-158] | 3.40^a) | – |
| Cn1nc(C(F)(F)F)c(Cl)c1C(=O)Nc1ccc(Cl)c(C(=O)NC2CC2)c1 [Ik-18] | 2.77^a) | – |
| Cc1nc(C(F)(F)F)ccc1C(=O)Nc1ccc(Cl)c(C(=O)NC2CC2)c1 [Ir-2] | 2.27^a) | – |
| Cn1nc(C(F)(F)C(F)(F)C(F)(F)C(F)(F)F)c(Br)c1C(=O)O [4-Bromo-1-methyl-3-nonafluorobutyl-1H-pyrazole-5-carboxylic acid] | – | chromatographic logP (HPLC method a), eluent acetonitrile/water with formic acid): 3.17 |
| O=C(NC1CC1)c1cc(NC(=O)c2cnc(C(F)(F)C(F)(F)F)nc2C2CC2)ccc1Cl [Ib-30] | 3.28^a) | – |
| O=C(NCC=CCl)c1cc(NC(=O)c2cnc(C(F)(F)C(F)(F)F)nc2C(F)F)ccc1Cl [Ib-32] | 3.29^a) | – |
| Cn1nc(C(F)(F)C(F)(F)F)c(C(F)(F)F)c1C(=O)Nc1ccc(Cl)c(C(=O)NCCF)c1 [Ik-88] | 3.21^a) | – |
| Cn1nc(C2CC2)c(Br)c1C(=O)Nc1ccc(Cl)c(C(=O)NC2CC2)c1 [Ik-235] | 2.60^a) | – |
| Cn1nc(C(F)(F)C(F)(F)F)c(C(F)(F)F)c1C(=O)Nc1ccc(Cl)c(C(=O)NCC(F)F)c1 [Ik-86] | 3.41^a) | – |
| Cn1nc(OC(F)F)c(Br)c1C(=O)Nc1ccc(Cl)c(C(=O)NCC(F)(F)F)c1 [Ik-236] | 2.88^a) | – |
| O=C(NC1CC1)c1cc(NC(=O)c2cnc(C(F)(F)C(F)(F)C(F)(F)F)nc2C(F)(F)F)ccc1Cl [Ib-15] | 3.56^a) | – |
| Cn1nc(C(F)(F)C(F)(F)F)c(C(F)(F)F)c1C(=O)Nc1cc(C(=O)N[C@@H]2C[C@@H]2F)c(Br)cn1 [Ik-128, 5-Bromo-N-[(1R,2S)-2-fluorocyclopropyl]-2-({[1-methyl-3-(pentafluoroethyl)-4-(trifluoromethyl)-1H-pyrazol-5-yl]carbonyl}amino)isonicotinamide] | – | chromatographic logP [1]: 3.19; chromatographic logP [2]: 3.19 |
| O=C(NCC(F)(F)F)c1cc(NC(=O)c2cnc(C(F)(F)C(F)(F)C(F)(F)F)nc2C(F)(F)F)ccc1Cl [Ib-16] | 3.88^a) | – |

| Compound | logP | further results |
| --- | --- | --- |
| CNC(=O)c1cc(NC(=O)c2ccc(C(F)(F)F)nc2C)ccc1Cl [Ir-5] | 1.97^a) | – |
| Cc1nc(C(F)(F)F)ccc1C(=O)Nc1ccc(Cl)c(C(=O)NC(C)C)c1 [Ir-4] | 2.53^a) | – |
| CN(C(=O)c1c(C(F)(F)F)c(C(F)(F)C(F)(F)F)nn1C)c1ccc(Cl)c(C(=O)NCc2ccccc2)c1 [Ik-134] | 3.94^a) | – |
| C=CCc1c(C(F)(F)C(F)(F)F)nn(C)c1C(=O)Nc1ccc(Cl)c(C(=O)NC2CC2)c1 [Ik-262] | 3.37^a) | – |
| CC(NC(=O)c1cc(NC(=O)c2c(Br)c(C(F)(F)C(F)(F)F)nn2C)ccc1Cl)C(F)(F)F (stereo not shown) [Ik-11] | 2.00^a) | – |
| Cn1nc(C(F)(F)F)c(Br)c1C(=O)Nc1ccc(Cl)c(C(=O)NCc2ccccc2)c1 [Ik-23] | 3.44^a) | – |
| CNC(=O)c1cc(NC(=O)c2ccc(C(F)(F)F)nc2Cl)ccc1Cl [Ir-6] | 2.16^a) | – |
| Cn1nc(C(F)(F)F)c(Br)c1C(=O)Nc1ccc(Cl)c(C(=O)NC2CC2)c1 [Ik-21] | 2.75^a) | – |
| O=C(NCC(F)(F)F)c1cc(NC(=O)c2ncc(C(F)(F)F)cc2Cl)ccc1Cl [Ii-3] | 2.86^a) | – |
| Cn1nc(C(F)(F)C(F)(F)F)c(C(F)(F)F)c1C(=O)Nc1cc(F)c(I)c(C(=O)NCC(F)(F)F)c1 [Ik-226] | 3.95^a) | – |
| CC(NC(=O)c1cc(NC(=O)c2cnc(C(F)(F)C(F)(F)F)nc2C(F)(F)F)ccc1Cl)C1CC1 (stereo not shown) [Ib-37] | 3.76^a) | – |
| CSc1c(Cl)cc(NC(=O)c2c(C(F)(F)F)c(C(F)(F)C(F)(F)F)nn2C)cc1C(=O)NC1CC1 [Ik-201] | 3.80^a) | – |
| Cn1nc(C(F)(F)C(F)(F)F)c(Br)c1C(=O)Nc1ccc(Cl)c(C(=O)NCC=CCl)c1 [Ik-28] | 3.64^a) | – |
| Cn1nc(C(F)(F)C(F)(F)F)c(C(F)(F)F)c1C(=O)Nc1cc(C(=O)NCC(F)(F)F)c(F)cc1Cl [Ik-151] | 3.83^a) | – |
| CSCCNC(=O)c1cc(NC(=O)c2c(C(F)(F)F)c(C(F)(F)C(F)(F)F)nn2C)ccc1Cl [Ik-82] | 3.57^a) | – |
| Cn1nc(C(F)(F)C(F)(F)F)c(C(F)(F)F)c1C(=O)Nc1ccc(Cl)c(C(=O)NCc2ccc(F)cn2)c1 [Ik-80] | 4.75^a) | – |
| Cn1nc(C(F)(F)C(F)(F)C(F)(F)C(F)(F)F)cc1C(=O)Nc1ccc(Cl)c(C(=O)NC2CC2)c1 [Ik-266] | 3.74^a) | – |
| Cn1nc(OCC(F)(F)F)c(I)c1C(=O)Nc1ccc(Cl)c(C(=O)NC2CC2)c1 [Ik-245] | 2.85^a) | – |
| Cn1nc(C(F)(F)C(F)(F)F)c(C(F)(F)F)c1C(=O)Nc1cc(Cl)c(Br)c(C(=O)NCC(F)(F)F)c1 [Ik-215] | 4.14^a) | – |
| O=C(O)c1[nH]nc(C(F)(F)C(F)(F)F)c1C(F)(F)F [3-(Pentafluoroethyl)-4-(trifluoromethyl)-1H-pyrazole-5-carboxylic acid] | – | chromatographic logP [1]: 2 |
| COC(=O)COC(=O)c1cc(NC(=O)c2c(C(F)(F)F)c(C(F)(F)C(F)(F)F)nn2C)ccc1Cl [Ik-107] | 4.03^a) | – |
